According to US20260035364A1, “BICYCLIC TETRAHYDROTHIAZEPINE DERIVATIVES” (Hoffmann-La Roche Inc., priority 2022, published 2026):
pEC50: −log10 of the molar value.

System: primary human T-cells
Test: IL2 secretion measurements in CD3-stimulated T-cells
Format: cell-based
Conditions: Homo sapiens, T-cell, 24 h, CD3 condition; for Emax: IL2 after 24 hours, 20 μM reference compound A1 = 100%, read-out: Emax IL2 (% activation); for pEC50: IL2 secretion after 24 hours, read-out: Tcell IL2 CD3 EC50
Method: As readouts for T-cell activation, IL2 secretion after 24 hours and proliferation after 5 days was measured. Increases in IL2 secretion and proliferation upon compound treatment were assessed as the % of the maximum of reference compound A1. WO 2016/139181 discloses reference compound A1 as example 70. As a counter screen and to make sure that no unwanted TCR-independent activation was triggered, PBS conditions were run for all compounds.
Expanded primary human T-cells were thawed and cultured in RPMI 1640 (Gibco, #61870-010)+5% human serum (HS, Sigma, #H3667)+1 mM Sodium Pyruvate (Gibco, #11360-039)+50 μM 2-mercaptoethanol (Gibco, #31350-010) and 1× Pen-Strep (Life Technologies, #15140122) medium at density of 2 Mio/ml for 3 hours in 5% CO2, 37° C. and 95% humidity. For coating of plates, […] or PBS++ with CD3 antibody (concentration depending on donor and determined by CD3 titrations) was added 100 μl/well to Poly-D Lysine coated 96-well plates. Plates were sealed and incubated at room temperature for 3 hours on a table-top rocking platform. After incubation, plates were washed once with PBS−− and filled with 40 μl/well culture medium only. Compounds were then added (see next section) to medium only plates. After 3 hours of culturing the T-cells, cells were filtered through a cell strainer (Miltenyi Biotech, #130-041-407), counted again and concentration was adjusted to 1.25 Mio/ml.
Cells were then seeded 80 μl/well to the 40 μl/well including dispensed compounds according to plate layout. By adding cells, compounds were further diluted 1:3, and resulting in 100k cells/120 µl/well. After 24 hours 40 μl of supernatant was collected carefully from the top while not disturbing the cells and transferred into a round bottom 96 well plate. Collected and frozen supernatant was used for detection of IL2 using the IL-2 Human ProQuantum Immunoassay Kit (Invitrogen) or using the Human IL-2 ELISA Kit (Thermo Fisher).
Compound Treatment Compounds were added in a 5 or 6 pt dose response with the Tecan D300e Digital Dispenser, all conditions 3 times more concentrated than the end-concentration, since cells are added afterwards (80p1 cells to 40p1 prepared medium with treatment). The DR was starting at 20 μM or 10 μM final top concentration and a dilution factor of 3.333. The positive control was the reference compound A1 that was added in a dose response as well, additionally to 3 wells of only 20 μM representing the positive stimulator control. All wells were normalized with DMSO to a final concentration of 0.6% (0.2% end-concentration).
The immunoassay is done following the manufacturer's manual (Invitrogen, #A35603).
Additional information: For the immunoassay, MicroAmp™ EnduraPlate™ Optical 384-Well plates are used. Frozen supernatant is thawed and centrifuged for 5 minutes at 1000×g, both steps at 4° C. After centrifugation, required sample amount is taken from the top, and in a separate LightCycler V-bottom plate (working plate) diluted with assay dilution buffer, dilution factor depending on the PBS or CD3 condition but at least 1:3. IL-2 standard and blanks are prepared in the same V-bottom plate, standard with a range of 0.0128-5000 pg/ml (extended version). After preparation, 5 μl of sample dilutions or standard/blanks are transferred to the optical 384-well plate (assay plate) and the 10 μl reaction protocol is being followed. For measurement, the QuantStudio 12K Flex system is used. Raw data is extracted and IL-2 concentrations are calculated with the Thermo Fisher online app (apps.thermofisher.com/apps/proquantum).
ELISA is done following the manufacturer's manual (Thermo Fisher Scientific, #88-7025-88). Additional information: For the ELISA Nunc MaxiSorp 96 well plates are used. Frozen supernatant is thawed and centrifuged for 5 minutes at 1000×g, both steps at 4° C. […]

SMILES	pEC50	Emax
CC(C)(c1nnc(-c2ccc3c(c2)N(Cc2ccc(OC(F)(F)C(F)F)cc2)C(=O)[C@@H](N)CS3(=O)=O)o1)S(C)(=O)=O [Example 3, (3R)-3-amino-7-[5-(1-methyl-1-methylsulfonyl-ethyl)-1,3,4-oxadiazol-2-yl]-1,1-dioxo-5-[[4-(1,1,2,2-tetrafluoroethoxy)phenyl]methyl]-2,3-dihydro-126,5-benzothiazepin-4-one]	5.88	102%
CC(C)(c1nnc(-c2ccc3c(c2)N(Cc2ccc(Oc4ccccc4)cc2)C(=O)[C@@H](N)CS3(=O)=O)o1)S(=O)(=O)C1CC1 [Example 61, (3R)-3-amino-7-[5-(1-cyclopropylsulfonyl-1-methyl-ethyl)-1,3,4-oxadiazol-2-yl]-1,1-dioxo-5-[(4-phenoxyphenyl)methyl]-2,3-dihydro-1λ6,5-benzothiazepin-4-one]	5.38	89%
COc1ccc(-c2ccc(CN3C(=O)[C@@H](N)CS(=O)(=O)c4ccc(-c5nnc(C(C)(C)S(C)(=O)=O)o5)cc43)cc2)c(C)c1 [Example 49, (3R)-3-amino-5-[[4-(4-methoxy-2-methyl-phenyl)phenyl]methyl]-7-[5-(1-methyl-1-methylsulfonyl-ethyl)-1,3,4-oxadiazol-2-yl]-1,1-dioxo-2,3-dihydro-1λ6,5-benzothiazepin-4-one]	< 5.00	34%
CN(C)S(=O)(=O)C(C)(C)c1nnc(-c2ccc3c(c2)N(Cc2ccc(-c4ccc(C(F)(F)F)cc4)cc2)C(=O)[C@@H](N)CS3(=O)=O)o1 [Example 65, 2-[5-[(3R)-3-amino-1,1,4-trioxo-5-[[4-[4-(trifluoromethyl)phenyl]phenyl]methyl]-2,3-dihydro-1λ6,5-benzothiazepin-7-yl]-1,3,4-oxadiazol-2-yl]-N,N-dimethyl-propane-2-sulfonamide]	5.50	85%
CS(=O)(=O)C1(c2nnc(-c3ccc4c(c3)N(Cc3ccc(Oc5ccccc5)cc3)C(=O)[C@@H](N)CS4(=O)=O)o2)CCC1 [Example 68, (3R)-3-amino-7-[5-(1-methylsulfonylcyclobutyl)-1,3,4-oxadiazol-2-yl]-1,1-dioxo-5-[(4-phenoxyphenyl)methyl]-2,3-dihydro-1λ6,5-benzothiazepin-4-one]	5.66	41%
CC(C)(c1nnc(-c2ccc3c(c2)N(Cc2ccc(-c4noc(C(F)(F)F)n4)cc2)C(=O)[C@@H](N)CS3(=O)=O)o1)S(C)(=O)=O [Example 17, (3R)-3-amino-7-[5-(1-methyl-1-methylsulfonyl-ethyl)-1,3,4-oxadiazol-2-yl]-1,1-dioxo-5-[[4-[5-(trifluoromethyl)-1,2,4-oxadiazol-3-yl]phenyl]methyl]-2,3-dihydro-1λ6,5-benzothiazepin-4-one]	5.47	153%
CC(C)(c1nnc(-c2ccc3c(c2)N(Cc2ccc(-c4ccc(C(F)(F)F)cn4)cc2)C(=O)[C@@H](N)CS3(=O)=O)o1)S(C)(=O)=O [Example 10]	5.75	174%
CC1(c2nnc(-c3ccc4c(c3)N(Cc3ccc(Oc5ccccc5)cc3)C(=O)[C@@H](N)CS4(=O)=O)o2)CCCS1(=O)=O (stereo partly drawn) [Example 58, (3R)-3-amino-7-[5-(2-methyl-1,1-dioxo-thiolan-2-yl)-1,3,4-oxadiazol-2-yl]-1,1-dioxo-5-[(4-phenoxyphenyl)methyl]-2,3-dihydro-1λ6,5-benzothiazepin-4-one]	5.53	136%
COc1cc(Cl)cc(Oc2ccc(CN3C(=O)[C@@H](N)CS(=O)(=O)c4ccc(-c5nnc(C(C)(C)S(C)(=O)=O)o5)cc43)cc2)c1 [Example 41, (3R)-3-amino-5-[[4-(3-chloro-5-methoxy-phenoxy)phenyl]methyl]-7-[5-(1-methyl-1-methylsulfonyl-ethyl)-1,3,4-oxadiazol-2-yl]-1,1-dioxo-2,3-dihydro-1λ6,5-benzothiazepin-4-one]	5.84	115%
CS(=O)(=O)Cn1nnnc1-c1cc2c(cc1F)S(=O)(=O)C[C@H](N)C(=O)N2Cc1ccc(Oc2ccccc2)cc1 [Example 55, (3R)-3-amino-8-fluoro-7-[1-(methylsulfonyl-methyl)tetrazol-5-yl]-1,1-dioxo-5-[(4-phenoxyphenyl)methyl]-2,3-dihydro-1λ6,5-benzothiazepin-4-one]	5.38	85%

The next compounds have a higher pEC50 than those just listed; values first:

pEC50	SMILES	Emax
5.99	CC(C)(c1nnc(-c2ccc3c(c2)N(Cc2ccc(OCc4ccc(F)cc4)cc2)C(=O)[C@@H](N)CS3(=O)=O)o1)S(C)(=O)=O [Example 12, (3R)-3-amino-5-[[4-[(4-fluorophenyl)methoxy]phenyl]methyl]-7-[5-(1-methyl-1-methylsulfonyl-ethyl)-1,3,4-oxadiazol-2-yl]-1,1-dioxo-2,3-dihydro-1λ6,5-benzothiazepin-4-one]	173%
6.00	CS(=O)(=O)C1(c2nnc(-c3cc4c(cc3F)S(=O)(=O)C[C@H](N)C(=O)N4Cc3ccc(Cl)cc3)o2)CC1 [Example 1, (3R)-3-amino-5-[(4-chlorophenyl)methyl]-8-fluoro-7-[5-(1-methylsulfonylcyclopropyl)-1,3,4-oxadiazol-2-yl]-1,1-dioxo-2,3-dihydro-1λ6,5-benzothiazepin-4-one]	55%
6.48	CC(C)(c1nnc(-c2cc3c(cc2F)S(=O)(=O)C[C@H](N)C(=O)N3Cc2ccc(Cl)cc2)o1)S(C)(=O)=O [Example 2, (3R)-3-amino-5-[(4-chlorophenyl)methyl]-8-fluoro-7-[5-(1-methyl-1-methylsulfonyl-ethyl)-1,3,4-oxadiazol-2-yl]-1,1-dioxo-2,3-dihydro-1λ6,5-benzothiazepin-4-one]	94%
5.96	CC(C)(c1nnc(-c2ccc3c(c2)N(Cc2ccc(Oc4cccc(Cl)c4Cl)cc2)C(=O)[C@@H](N)CS3(=O)=O)o1)S(C)(=O)=O [Example 32, (3R)-3-amino-5-[[4-(2,3-dichlorophenoxy)phenyl]methyl]-7-[5-(1-methyl-1-methylsulfonyl-ethyl)-1,3,4-oxadiazol-2-yl]-1,1-dioxo-2,3-dihydro-1λ6,5-benzothiazepin-4-one]	82%
6.42	COc1ccc(-c2ccc(CN3C(=O)[C@@H](N)CS(=O)(=O)c4ccc(-c5noc(C(C)(C)S(C)(=O)=O)n5)cc43)cc2)cc1 [Example 63, (3R)-3-amino-5-[[4-(4-methoxyphenyl)phenyl]methyl]-7-[5-(1-methyl-1-methylsulfonyl-ethyl)-1,2,4-oxadiazol-3-yl]-1,1-dioxo-2,3-dihydro-1λ6,5-benzothiazepin-4-one]	57%
6.71	CC(C)(c1nc(-c2cc3c(cc2F)S(=O)(=O)C[C@H](N)C(=O)N3Cc2ccc(-c3noc(C4CC4)n3)cc2)no1)S(C)(=O)=O [Example 45, (3R)-3-amino-5-[[4-(5-cyclopropyl-1,2,4-oxadiazol-3-yl)phenyl]methyl]-8-fluoro-7-[5-(1-methyl-1-methylsulfonyl-ethyl)-1,2,4-oxadiazol-3-yl]-1,1-dioxo-2,3-dihydro-1λ6,5-benzothiazepin-4-one]	190%
6.31	CC(C)(c1nc(-c2cc3c(cc2F)S(=O)(=O)C[C@H](N)C(=O)N3Cc2ccc(-c3noc(C(F)(F)F)n3)cc2)no1)S(C)(=O)=O [Example 46, (3R)-3-amino-8-fluoro-7-[5-(1-methyl-1-methylsulfonyl-ethyl)-1,2,4-oxadiazol-3-yl]-1,1-dioxo-5-[[4-[5-(trifluoromethyl)-1,2,4-oxadiazol-3-yl]phenyl]methyl]-2,3-dihydro-1λ6,5-benzothiazepin-4-one]	317%
